Reference: PubChem BioAssay AID2060364

Test system: JHH-NF1-GBM1 glioma viability, PrestoBlue fluorescence, 120 h
Assay: viability reduction in NF1-associated ATRX-deficient glioma cells, dose response, cell-based, JHH-NF1-GBM1, PrestoBlue (AID 2060364)

- IC50: 4.84 µM
SMILES: O=[N+]([O-])c1c(NCCO)cc(Sc2nc3ccccc3s2)c2nonc12
